Measured values reported in PubChem BioAssay (NCI).
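How tested: cells in 96-well plates exposed to compound for 48 hours at five concentrations. TGI denotes the concentration required for complete inhibition of growth.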

Legend:
Experiment in all cases: NCI-60 cell line screen, 48 h
786-0 renal = system: 786-0 renal
A498 renal = system: A498 renal
A549 NSCLC = system: A549 NSCLC
ACHN renal = system: ACHN renal
CAKI-1 renal = system: CAKI-1 renal
CCRF-CEM leukemia = system: CCRF-CEM leukemia
COLO 205 colon = system: COLO 205 colon
DLD-1 colon = system: DLD-1 colon
DMS 114 small cell lung = system: DMS 114 small cell lung
DMS 273 small cell lung = system: DMS 273 small cell lung
EKVX NSCLC = system: EKVX NSCLC
HCC-2998 colon = system: HCC-2998 colon
HCT-116 colon = system: HCT-116 colon
HCT-15 colon = system: HCT-15 colon
HL-60(TB) leukemia = system: HL-60(TB) leukemia
HOP-18 NSCLC = system: HOP-18 NSCLC
HOP-62 NSCLC = system: HOP-62 NSCLC
HOP-92 NSCLC = system: HOP-92 NSCLC
HT29 colon = system: HT29 colon
IGROV1 ovarian = system: IGROV1 ovarian
K-562 leukemia = system: K-562 leukemia
KM12 colon = system: KM12 colon
KM20L2 colon = system: KM20L2 colon
LOX IMVI melanoma = system: LOX IMVI melanoma
LXFL 529 NSCLC = system: LXFL 529 NSCLC
M14 melanoma = system: M14 melanoma
M19-MEL melanoma = system: M19-MEL melanoma
MALME-3M melanoma = system: MALME-3M melanoma
MOLT-4 leukemia = system: MOLT-4 leukemia
NCI-H226 lung = system: NCI-H226 lung
NCI-H23 lung = system: NCI-H23 lung
NCI-H460 lung = system: NCI-H460 lung
NCI-H522 lung = system: NCI-H522 lung
OVCAR-3 ovarian = system: OVCAR-3 ovarian
OVCAR-4 ovarian = system: OVCAR-4 ovarian
OVCAR-5 ovarian = system: OVCAR-5 ovarian
OVCAR-8 ovarian = system: OVCAR-8 ovarian
RPMI-8226 leukemia = system: RPMI-8226 leukemia
RXF 393 renal = system: RXF 393 renal
RXF-631 renal = system: RXF-631 renal
SF-268 CNS = system: SF-268 CNS
SF-295 CNS = system: SF-295 CNS
SF-539 CNS = system: SF-539 CNS
SK-MEL-2 melanoma = system: SK-MEL-2 melanoma
SK-MEL-28 melanoma = system: SK-MEL-28 melanoma
SK-MEL-5 melanoma = system: SK-MEL-5 melanoma
SK-OV-3 ovarian = system: SK-OV-3 ovarian
SN12C renal = system: SN12C renal
SNB-19 CNS = system: SNB-19 CNS
SNB-75 CNS = system: SNB-75 CNS
SNB-78 CNS = system: SNB-78 CNS
SR leukemia = system: SR leukemia
SW-620 colon = system: SW-620 colon
TK-10 renal = system: TK-10 renal
U251 CNS = system: U251 CNS
UACC-257 melanoma = system: UACC-257 melanoma
UACC-62 melanoma = system: UACC-62 melanoma
UO-31 renal = system: UO-31 renal
XF 498 CNS = system: XF 498 CNS

Measured: TGI

[O-][n+]1c(-c2ccccc2)oc2ccccc21
29 µM: SN12C renal
63 µM: EKVX NSCLC
27.6 µM: SF-295 CNS
67.1 µM: OVCAR-5 ovarian
23.1 µM: UACC-62 melanoma
37.8 µM: HCC-2998 colon
59.1 µM: HT29 colon
32.7 µM: SNB-75 CNS
38.7 µM: NCI-H23 lung
36.6 µM: SK-MEL-28 melanoma
33.6 µM: COLO 205 colon
17.9 µM: A549 NSCLC
20.1 µM: HOP-18 NSCLC
> 65.1 µM: SNB-19 CNS
39.4 µM: ACHN renal
31.5 µM: SF-539 CNS
43.1 µM: KM20L2 colon
20.2 µM: NCI-H460 lung
40.4 µM: SK-MEL-2 melanoma
> 85.8 µM: U251 CNS
3.59 µM: M19-MEL melanoma
47.7 µM: TK-10 renal
16.4 µM: DMS 114 small cell lung
34.8 µM: A498 renal
28 µM: DMS 273 small cell lung
> 55.7 µM: CAKI-1 renal
24.3 µM: HCT-15 colon
15.7 µM: LOX IMVI melanoma
41.9 µM: HCT-116 colon
> 68 µM: OVCAR-4 ovarian
24.8 µM: M14 melanoma
65.9 µM: OVCAR-3 ovarian
17.5 µM: NCI-H522 lung
> 59.5 µM: DLD-1 colon
> 94.4 µM: LXFL 529 NSCLC
28.1 µM: MALME-3M melanoma
55.6 µM: RXF 393 renal
22.6 µM: UACC-257 melanoma
> 69.2 µM: RPMI-8226 leukemia
40.3 µM: UO-31 renal
97.1 µM: SNB-78 CNS
35.2 µM: HOP-62 NSCLC
6.81 µM: SK-MEL-5 melanoma
79.9 µM: HL-60(TB) leukemia
39.1 µM: SW-620 colon
62.4 µM: 786-0 renal
> 100 µM: all other assays above

Cc1cccc(C)c1NC(=O)CCC(=O)NNc1nnc(C)n1N
> 100 µM: all assays above

CCOC(=O)[C@]12C3C=CC(C3)C1C(=O)C1OC12 (some centres undefined)
not listed: KM20L2 colon | M14 melanoma | RXF 393 renal | SR leukemia
> 100 µM: all other assays above

Cc1ccc(N=Nc2c(C)nn(-c3ccccc3)c2C)c(Br)c1
not listed: NCI-H522 lung | SR leukemia | UO-31 renal
> 100 µM: all other assays above
